# In ChEMBL document CHEMBL1144284, “Pharmacophore identification of alpha(1A)-adrenoceptor antagonists” (Bioorg Med Chem Lett, 2005):
# Target: T1, Alpha-1A adrenergic receptor (Homo sapiens, UniProt P35348)
# T1 sequence (P35348 whole entry): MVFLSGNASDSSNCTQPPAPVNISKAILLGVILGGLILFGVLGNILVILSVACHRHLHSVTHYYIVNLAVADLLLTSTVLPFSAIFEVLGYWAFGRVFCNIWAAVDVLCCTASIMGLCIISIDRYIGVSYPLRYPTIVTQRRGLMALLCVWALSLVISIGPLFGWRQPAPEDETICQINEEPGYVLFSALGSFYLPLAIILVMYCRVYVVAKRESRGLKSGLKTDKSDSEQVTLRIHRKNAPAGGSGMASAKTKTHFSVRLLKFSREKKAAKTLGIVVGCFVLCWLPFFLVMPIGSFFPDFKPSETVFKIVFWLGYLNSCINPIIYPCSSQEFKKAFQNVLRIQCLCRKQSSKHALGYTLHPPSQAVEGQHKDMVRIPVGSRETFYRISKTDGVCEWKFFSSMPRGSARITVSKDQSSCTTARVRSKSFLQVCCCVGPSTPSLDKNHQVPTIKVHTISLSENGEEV
# Assay: Binding constant measured against Alpha-1A adrenergic receptor in human prostate; +++:highly active
# Type: tissue-based, Prostate gland
row,Structure (SMILES),Ki [nM]
1,CC(C)Oc1ccccc1N1CCN(CCCNC(=O)CN2CCCCC2=O)CC1 [RWJ-69736],0.65
2,COc1cccc(OC)c1OCCNC[C@H]1CSc2ccccc2O1,0.2
3,C[C@H](Cc1cc2c(c(C(N)=O)c1)N(CCCO)CC2)NCCOc1ccccc1OCC(F)(F)F [SILODOSIN],0.036
4,COc1cccc(OC)c1OCCNC[C@@H]1Oc2ccccc2O[C@H]1c1ccc(C)cc1,0.35
5,CC(C)(Cc1c[nH]c2ccc(Cl)cc12)NCCOc1ccccc1OCC1CC1,0.6
6,COCC1=C(C(=O)OC)[C@H](c2ccc(F)c(F)c2)N(C(=O)NCCCN2CCC(c3ccccn3)CC2)C(=O)N1,0.36

# Target: T1, Alpha-1A adrenergic receptor
# Assay: Binding constant measured against Alpha-1A adrenergic receptor in human prostate; ++:moderately active
# Type: tissue-based, Prostate gland
row,Structure (SMILES),Ki [nM]
1,CC(C)Oc1ccccc1N1CCN(CCNC(=O)CN2CCCCC2=O)CC1 [RWJ-38063],9.3
2,COc1ccccc1N1CCN(CCN2C(=O)c3ccccc3C(C)(C)C2=O)CC1,1
3,COc1ccccc1N1CCN(CC(O)COc2cccc3ccccc23)CC1 (stereo not given) [NAFTOPIDIL],3.7
4,C[C@@]1(O)C(=O)N(CCCN2CCN(c3ccc(F)cc3OCC(F)(F)F)CC2)C(=O)N[C@@H]1O,5
5,CC(C)Oc1ccccc1N1CCN(CCNC(=O)CN2CCCCCC2=O)CC1 [RWJ-68157],22
6,O=C(CCCN1CCC2(CC1)C(=O)NCN2c1ccccc1)c1ccc(F)cc1 [SPIPERONE],7.9
7,N=C(Nc1ccccc1)N1CCN(/C=C2/N=C(c3cccc4ccccc34)OC2=O)CC1,41
8,COc1ccc(Cl)cc1N1CCN(CCCNc2nccc(C(N)=O)n2)CC1,2
9,COc1cccc(OC)c1OCCNCC1Oc2ccccc2OC1c1ccc(C)cc1 (stereo not given),4.1
10,CCOC(=O)C1CCC(=O)N1CC(=O)CCN1CCN(c2ccccc2OC(C)C)CC1 (stereo not given),59

# Target: T1, Alpha-1A adrenergic receptor
# Assay: Binding constant measured against Alpha-1A adrenergic receptor in human prostate; +:inactive
# Type: tissue-based, Prostate gland
row,Structure (SMILES),Ki [nM]
1,C[C@H](CN1CCN(c2cc(F)c(F)cc2F)CC1)N1C(=O)CC2(CCCC2)CC1=O,290
2,N=C(CC(O)COc1ccccc1-c1ccccc1)N1CCCCC1 (stereo not given),2500
3,COc1cc2c3c(c1OC)-c1cc4c(cc1C[C@@H]3N(C)CC2)OCO4,430
4,CCS(=O)(=O)Nc1cccc(C(=C2CCCCC2)c2c[nH]cn2)c1,490
